The source of these data is ChEMBL document CHEMBL3352112, “Exploiting the therapeutic potential of 8-β-d-glucopyranosylgenistein: synthesis, antidiabetic activity, and molecular interaction with islet amyloid polypeptide and amyloid β-peptide (1-42)” (J Med Chem, 2014).

Values after ≈ are worked out from the molar mass of the structure shown.

The nature of the test: Cytotoxicity against […] HII4E cells after 24 hrs by MTT cell viability assay. In kind it is cell-based. For orientation: Tetrazolium dyes change colour on reduction, which living cells bring about.

Regarding `O=C(N[C@H](CO)[C@H](O)c1ccc([N+](=O)[O-])cc1)C(Cl)Cl` [CHLORAMPHENICOL], the IC50 (commonly the concentration that gives 50% inhibition) stood at 143 µg/mL (≈ 443 µM).
